Source: patent publication US6057359A, “Spontaneously dispersible concentrates comprising esters of baccatin-III compounds having antitumor and antiviral activity” (Marigen S.A., priority 1997, dated 2000)

What was measured:
[1] = test system: LEUKEMIA K 562; assay: Vitality/proliferation test (Tritium), leukemia K 562; format: cell-based, human; conditions: controls 50'037 cpm
Source text: (§1) 4.0 Comparative assays with human tumor cell lines
(§2) VITALITY TEST/1%-MARIGENOL-CONCENTRATE
(§3) 1 × 10^4 cells per well
(§4) Proliferation test (Tritium: 1 μCi/well H^+)

[2] = test system: LEUKEMIA DAUDI-LINE; assay: Vitality/proliferation test (Tritium), leukemia Daudi-line; format: cell-based, human; conditions: controls 23'090 cpm
Source text: as §1, §2, §3, §4

[3] = test system: Py6 cells (Virus transformed 3T3 mouse-fibroblasts); assay: Test of cell toxicity / cytotoxicity of MARIGENOL concentrates on Py6 cells (plaque assay, serial dilution); format: cell-based; conditions: for in dilution active up to 1: (microemulsion ME 1:100): dilution of ME 1:100, given in Mio.
Description: A biological assay system using microtiter plates and serial dilutions has been developed. Batches of 10^4 tumour cells per ml were set up in culture medium RPMI 1640 and inactivated with 10% of fetal calf serum (GIBCO); they are spread at a density low enough to enable them to grow during the assay, in non-confluent monolayers. Samples are added after 6 to 24 hours, with 100 μl per row, to which 100 μl of medium are added in the first well. Half of this mixture is withdrawn, transferred into the next well and again treated with 100 μl of medium, etc.
[…] They are then stained and fixed using 0.1% crystal violet (Fluka, Buchs) in a solution of 70% of methanol, 1% of formaldehyde and 29% of water. The samples are evaluated under the microscope, magnification 300×. The greatest cytotoxic dilution is determined. The samples can also be evaluated quantitatively by means of scanning and absorption measurement in a spectrophotometer.
N.B.: On the subject of the eternalized Py6-cells cf.: "Biochemistry", Coordinating Editor Geoffrey L. Zubay, Addison-Wesley Publishing Company, 1983, p.1079.

[4] = test system: VERO cells; assay: Cell lysis in VERO cell layers; format: cell-based, African green monkey; conditions: dilution 1:1'000; plaque reduction table
Description: (§5) The antiviral/virucidal efficacy against HSV of an aqueous microemulsion prepared with appropriate MARIGENOL®-concentrates was assessed on a confluent monolayer culture of VERO cells (i.e. "African green monkey kidney cells"). The host cells were pretreated during 3 h at 4° C. with an inventive microemulsion or with culture medium alone and then infected with HSV at a constant dose of 10^4 plaque forming units (PFU). After virus absorption during 1 h, and subsequent addition of 2% methylcellulose in order to limit virus spreading, cells were cultured in MEM medium+2% foetal calf serum for 48 h, then fixed and stained with 1% crystal violet in methanol. The reduction of viral titre was expressed as percent reduction of plaques of lysis observed in pre-treated cells, compared to controls.

[5] = test system: Herpes-Virus (Herpes Simplex, HSV); assay: Antiviral/virucidal efficacy against HSV, plaque reduction in VERO cells; format: cell-based; conditions: compared to simple medium, 2880 min
Description: as §5
Infection was also detected by IFA at 24 h after inoculation, using a Mab specific for a glycoprotein common to HSV-1/HSV-2 (clone FQ 12, Argene Biosoft, BIOLINE, Torino).
The following test substances were assessed as concentrates in aqueous dilution (starting with a microemulsion 1:100): […]

[6] = test system: HIV isolates from patients (strains 21/4 and 4/5); assay: Effect on HIV infectivity, residual HIV titre (direct antiviral efficacy); format: cell-based
Description: Aliquote amounts of two HIV isolates from patients (strains 21/4 and 4/5) resuspended in complete RPMI medium at a titre of 300 CCID50 /ml were incubated during 3 hours, +4° C. with MARIGENOL®-concentrate, in the form of an aqueous microemulsion, at concentrations ranging from 10^-2 to 10^-5 in complete medium, as well as with ("empty") carrier concentrate and with medium alone as controls.
After pre-incubation, residual HIV titre was assessed by the CCID50 method (Cell-culture infecting dose 50%). Briefly, serial twofold dilutions were prepared from each of the six virus suspensions, and 200 μl of each dilution were incubated for 90 minutes with MT-4 cell pellets prepared as stated before (see 7.1). At the end of incubation, pellets were brought to initial cell concentration by adding appropriate amounts of complete RPMI medium to each tube, whose content was then distributed into 8 wells of a flat-bottom microtitre plate in 200 μl volumes, each vertical row coresponding to a dilution. After 5 days of incubation, cell viability was assessed by the MTT test as stated above, and the HIV titre was expressed as the reciprocal of that dilution which infects 4 out of 8 wells (50%) in a row. A well was considered infected when its O.D. readout at 550 nm was lower than the average readout of 8 control wells minus 2.8 times the standard error of the mean (lower 95% confidence limit).

Molecule	Proliferation test % ([1]; 10^-3)	Proliferation test cpm ([1]; 10^-3)	Proliferation test % ([1]; 10^-4)	Proliferation test cpm ([1]; 10^-4)	Proliferation test % ([1]; 10^-5)	Proliferation test % ([2]; 10^-3)	Proliferation test cpm ([2]; 10^-3)	Proliferation test % ([2]; 10^-4)	Proliferation test cpm ([2]; 10^-4)	Proliferation test % ([2]; 10^-5)	in dilution active up to 1: (calculated on active substance content, A.S.) ([3]; 24 h exposure)	in dilution active up to 1: (calculated on active substance content, A.S.) ([3]; 48 h exposure)	in dilution active up to 1: (calculated on active substance content, A.S.) ([3]; 72 h exposure)	further results
7-Baccatin III-all trans-retinoate	0.8%	415 cpm	1.6%	822 cpm	15.0%	1.1%	256 cpm	1.7%	412 cpm	52.7%	12.8 Mio.	25.6 Mio.	25.6 Mio.	–
CCCCCCCCCCCC(=O)O[C@H]1C[C@@]2(O)[C@@H](OC(=O)c3ccccc3)[C@@H]3[C@]4(OC(C)=O)CO[C@@H]4C[C@H](OC(=O)CCCCCCCCCCC)[C@@]3(C)C(=O)[C@H](OC(C)=O)C(=C1C)C2(C)C [BACCATIN III-DI-LAURATE, 7,13-Dilauroylbaccatin-III]	1.1%	585 cpm	1.3%	651 cpm	6.1%	1.4%	346 cpm	1.9%	455 cpm	38.3%	12.8 Mio.	12.8 Mio.	25.6 Mio.	–
C=CCCCCCCCCC(=O)O[C@H]1C[C@@]2(O)[C@@H](OC(=O)c3ccccc3)[C@@H]3[C@]4(OC(C)=O)CO[C@@H]4C[C@H](OC(=O)CCCCCCCCC=C)[C@@]3(C)C(=O)[C@H](OC(C)=O)C(=C1C)C2(C)C [BACCATIN III-DI-UNDECENOATE, 7,13-Baccatin-III-diundecenoate]	0.9%	466 cpm	1.3%	665 cpm	9.5%	1.2%	293 cpm	2.8%	653 cpm	41.7%	12.8 Mio.	25.6 Mio.	100 Mio.	in dilution active up to 1: (microemulsion ME 1:100) ([3]; 72 h exposure): 1 Mio.
CCCCCCCCCCCC(=O)O[C@H]1CC[C@@]2(C)C(=CC=C3[C@@H]4CC[C@H]([C@H](C)/C=C/[C@H](C)C(C)C)[C@@]4(C)CC[C@@H]32)C1 [C12:0 -ERGO ESTER (ERGOST. LAURATE), (3β, 22E)-Ergosta-5,7,22-triene-3-ol-laurate]	–	–	–	–	–	–	–	–	–	–	–	–	–	Cell-Lysis [4]: Cell-Lysis; Percent reduction of plaques in VERO cell monolayers ([5]; dilution 1:10'000): 62%; Percent reduction of plaques in VERO cell monolayers ([5]; dilution 1:100'000): 0%
CCCCCCCCCCCC(=O)Oc1cc(OC(=O)CCCCCCCCCCC)c2c(=O)cc(-c3ccccc3)oc2c1 [CHRYSIN-DI-LAURATE]	–	–	–	–	–	–	–	–	–	–	12.8 Mio.	51.2 Mio.	100 Mio.	in dilution active up to 1: (microemulsion ME 1:100) ([3]; 72 h exposure): 1 Mio.
CCCCCCCCCCCCCCCC(=O)Oc1cc(OC(=O)CCCCCCCCCCCCCCC)c2c(=O)cc(-c3ccccc3)oc2c1 [CHRYSIN-DI-PALMITATE]	–	–	–	–	–	–	–	–	–	–	12.8 Mio.	51.2 Mio.	51.2 Mio.	–
C=CCCCCCCCCC(=O)O[C@H]1CC[C@@]2(C)C(=CC=C3[C@@H]4CC[C@H]([C@H](C)/C=C/[C@H](C)C(C)C)[C@@]4(C)CC[C@@H]32)C1 [ERGOSTERYL-10-UNDECENOATE, (3β, 22E)-Ergosta-5,7,22-triene-3-ol-10-undecenoate]	–	–	–	–	–	–	–	–	–	–	–	–	–	RESIDUAL HIV TITRE (CCID50) ([6]; concentrate 1'000 ppm, active substance 10 ppm, mean titre of 2 strains, 3 h, +4° C.): 25 CCID50; inhibition of HIV infectivity ([6]; pre-treatment with 1%-concentrate): somewhat less potent inhibition
CCCCCCCCCCCCCCCC(=O)Oc1ccc(-c2oc3cc(OC(=O)CCCCCCCCCCCCCCC)cc(OC(=O)CCCCCCCCCCCCCCC)c3c(=O)c2OC(=O)CCCCCCCCCCCCCCC)c(OC(=O)CCCCCCCCCCCCCCC)c1 [MOREN-PENTA-PALMITATE]	–	–	–	–	–	–	–	–	–	–	6.4 Mio.	51.2 Mio.	51.2 Mio.	–
CCCCCCCCCCCC(=O)Oc1ccc(-c2oc3cc(OC(=O)CCCCCCCCCCC)cc(OC(=O)CCCCCCCCCCC)c3c(=O)c2OC(=O)CCCCCCCCCCC)c(OC(=O)CCCCCCCCCCC)c1 [MORIN-PENTA-LAURATE]	–	–	–	–	–	–	–	–	–	–	12.8 Mio.	100 Mio.	100 Mio.	in dilution active up to 1: (microemulsion ME 1:100) ([3]; 48 h exposure): 1 Mio.; in dilution active up to 1: (microemulsion ME 1:100) ([3]; 72 h exposure): 1 Mio.
CC(=O)O[C@H]1C(=O)[C@@]2(C)[C@H]([C@H](OC(=O)c3ccccc3)[C@]3(O)C[C@H](OC(=O)[C@H](O)[C@@H](NC(=O)c4ccccc4)c4ccccc4)C(C)=C1C3(C)C)[C@]1(OC(C)=O)CO[C@@H]1C[C@@H]2O [TAXOL-A.S., Taxol (Paclitaxel), reference compound]	1.3%	679 cpm	1.6%	830 cpm	7.1%	2.3%	552 cpm	2.9%	672 cpm	69.6%	6.4 Mio.	25.6 Mio.	25.6 Mio.	–
CCCCCCCCCCCCCCCCCCCC(=O)O[C@H]1CC[C@@]2(C)C(=CC[C@H]3[C@@H]4CC[C@H]([C@H](C)CC[C@@H](CC)C(C)C)[C@@]4(C)CC[C@@H]32)C1 [β-Sitosteryl-Arachidate, 3β-Stigmast-5-en-3-arachidate]	–	–	–	–	–	–	–	–	–	–	–	–	–	Cell-Lysis [4]: Cell-Lysis; Percent reduction of plaques in VERO cell monolayers ([5]; dilution 1:10'000): 76%; Percent reduction of plaques in VERO cell monolayers ([5]; dilution 1:100'000): 5%
